Paper PMC10799935, “Discovery of a peripheral 5HT2A antagonist as a clinical candidate for metabolic dysfunction-associated steatohepatitis” (Nature Communications, 2024)
Entries after “also recorded” stand apart in the source; their conditions may differ.

Key:
STZ+HFD mice = STZ+HFD mice (modified STAM) NASH and liver fibrosis model; type: in vivo, mouse
Description: Mice were intraperitoneally injected with low-dose streptozotocin (40 mg/kg; 5 times) in 7-week-old mice. After injection with STZ, mice were fed an HFD for 16 weeks to induce NASH and liver fibrosis. After 16 weeks of an HFD, mice were fed a standard chow diet to mimic the NASH patient under […]
nine weeks by oral gavage (Reviewer-only data 4). […]
inflammation, hepatocyte ballooning, and total NAFLD activity score by the NASH CRN histological scoring system (Reviewer-only data 4B, C). […]
hepatic fibrosis stage similar to STZ+HFD mice treated with OCA (Reveiwer-only data 4D, E). STZ+HFD mice […]
function (Reviwer-only data 4F). […]
group (Reviewer-only data 4G). Furthermore, the expression of genes related to lipogenesis and fibrosis was reduced in the compound 11c-treated group in a dose-dependent manner (Reviewer-only data 4H, I). These […]
Reviewer-only Data 4. Compound 11c treatment with dietary modification ameliorates NASH and liver fibrosis in a dose-dependent manner. (A) Experimental scheme for in vivo efficacy of compound 11c in […]
(STZ+HFD mice. (B-I) STZ+HFD mice fed HFD for 16 weeks were switched to SCD for 9 weeks and were treated with vehicle, compound 11c, or OCA by daily oral gavage. (B) Representative liver histology by H&E staining […]
mg/kg. Scale bars, 100µm. […]
mice; n = 9 per group. (D) Representative liver histology by Masson’s trichrome staining from vehicle, […]
Scale bars, 100µm. (E) Fibrosis stage
(F) Serum AST and ALT levels; n = 9 per […]
group. (G) Serum TG levels and hepatic TG levels; n = 9 per group. (H) Relative mRNA expression of lipogenesis-related genes as assessed by qRT-PCR in the liver; n = 9 per group. (I) Relative mRNA expression of fibrosis-related genes as assessed by qRT-PCR in the liver; n = 9 per group. Data are expressed as the means ±SEM.
[…], **P<0.01, one-way ANOVA with post hoc Tukey’s test (C, E, F, G, H, I). […]
Representative liver histology by Masson’s trichrome staining and Sirius Red staining. Scale bars, 100µm. (E) […]
one-way ANOVA with post hoc Tukey’s test (C, E).
Comment 2: In "Methods", the author claims to use HEK293 cells (a type of cell derived from kidney embryos) for cell research, however, the data in Table 5 are the results of hepatocyte experiments. What happened? Response: We appreciate the Reviewer’s comment. HEK293 cells were used for inhibition assay (cell research), shown in Table 1-3 of the main manuscript, while, hepatic cell lines were used for chemical profiling and for “Hepatocyte stability” test, shown in Table 5 of the main manuscript. The “Selectivity” of Compound 11c for different 5HT subtypes is elucidated in response to Comment 6.
We have modified the Methods section to provide clarity.

CYP1A2 = CYP1A2 (Homo sapiens, UniProt P05177); assay: in vitro
Sequence of CYP1A2 (P05177 whole entry): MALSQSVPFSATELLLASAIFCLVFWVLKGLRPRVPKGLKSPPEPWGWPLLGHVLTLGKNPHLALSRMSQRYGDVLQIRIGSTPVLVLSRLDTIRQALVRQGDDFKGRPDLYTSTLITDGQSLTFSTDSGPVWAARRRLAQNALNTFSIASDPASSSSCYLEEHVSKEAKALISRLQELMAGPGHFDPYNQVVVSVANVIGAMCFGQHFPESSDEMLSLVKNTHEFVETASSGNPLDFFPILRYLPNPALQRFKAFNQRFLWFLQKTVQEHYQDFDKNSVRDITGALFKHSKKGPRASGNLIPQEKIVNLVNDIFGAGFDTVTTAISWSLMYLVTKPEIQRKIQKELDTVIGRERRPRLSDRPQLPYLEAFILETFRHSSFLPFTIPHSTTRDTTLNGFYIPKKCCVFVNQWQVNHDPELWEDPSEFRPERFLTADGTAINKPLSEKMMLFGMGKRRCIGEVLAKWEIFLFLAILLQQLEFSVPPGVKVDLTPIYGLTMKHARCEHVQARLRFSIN

5HT6 (h) = target: T1, 5HT6 (h) (Homo sapiens, UniProt P50406); assay: 5HT subtype antagonism assay (Eurofins Cerep): 5HT6; type: cell-based; details: concentration not given
T1 construct: host or cells: CHO cells
T1 sequence (P50406 whole entry): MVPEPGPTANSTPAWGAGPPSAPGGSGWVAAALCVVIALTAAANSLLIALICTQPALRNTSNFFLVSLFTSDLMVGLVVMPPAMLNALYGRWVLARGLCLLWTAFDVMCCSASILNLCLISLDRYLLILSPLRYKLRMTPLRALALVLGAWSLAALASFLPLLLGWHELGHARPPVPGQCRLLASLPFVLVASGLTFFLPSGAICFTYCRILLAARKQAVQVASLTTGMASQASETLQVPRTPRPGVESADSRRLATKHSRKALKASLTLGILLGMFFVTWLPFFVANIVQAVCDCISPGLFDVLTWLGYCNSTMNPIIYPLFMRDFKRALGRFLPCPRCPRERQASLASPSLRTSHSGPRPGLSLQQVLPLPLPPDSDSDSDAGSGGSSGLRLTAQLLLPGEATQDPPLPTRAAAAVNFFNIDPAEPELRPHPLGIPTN

[1] = Hepatocyte stability test, monkey; type: in vitro ADME, cynomolgus monkey; details: male, cryopreserved hepatocytes, pH 7.4, read-out: Hepatocyte stability (% remaining after 3 h)
Description: Hepatocyte incubations for the test compound (10 μM final concentration, n = 2 per each time point) were carried out in mouse, rat, dog, monkey and human cryopreserved hepatocytes, resuspended at a density of 0.5 million cells/ml of modified Krebs-Henseleit buffer (KHB). The information regarding the hepatocytes used in the experiment is as follows: liverPool® 10-donor mixed gender human (BioIVT, Cat.No. X008001, lot EAV), male cynomolgus monkey (BioIVT, Cat.No. M00305, lot COJ), male Beagle dog (BioIVT, Cat.No. M00205, lot USY), male Sprague Dawley rat (BioIVT, Cat.No. M00005, lot TQE) and male CD1 mouse (BioIVT, Cat.No.005052, lot LFF). In addition, the compound was also incubated with blank KHB. The final concentration of solvent (DMSO) was 0.1% of the final volume. The incubations were performed for 3 hours at 37°C and pH 7.4. Reactions were terminated at 0 and 180 minutes by the addition of 3 volumes of stop solution (acetonitrile/methanol (2:1, v/v) containing internal standard–diclofenac at 100 ng/ml). Samples (compound spiked buffer and compound spiked hepatocytes, as well as blank samples, i.e. hepatocytes with the same DMSO%) were then centrifuged and aliquots were transferred to 96-deep micronic tubes and frozen at -80 °C until LC-MS/MS analysis. […]

With `Cc1nc2n(c(=O)c1CCN1CCC(=C3c4ccc(Cl)cc4CCc4cccnc43)CC1)CCCC2O` (stereo not drawn) [Compound 11c] the Hepatic triglyceride levels (STZ+HFD mice) was “reduced”, the “plasma AST and ALT levels” value (STZ+HFD mice) was “decreased” and the “fibrosis stage and total NAFLD activity score” value (STZ+HFD mice; 5 or 10 mg/kg daily oral gavage, nine weeks) was “effectively improved; also recorded: better than obeticholic acid”. The hepatic fibrosis stage (STZ+HFD mice; 11c 5 or 10 mg/kg, OCA 10 mg/kg) was “improvement”, the “hepatic steatosis, lobular inflammation, hepatocyte ballooning, and total NAFLD activity score” value (STZ+HFD mice; NASH CRN scoring) was “improved” and the “expression of genes related to lipogenesis and fibrosis” value (STZ+HFD mice; dose-dependent manner) was “reduced”. For the same compound, the inhibition at 10 µM (CYP1A2) was < 1%, the “Selectivity 6: % inhibition” value (5HT6 (h)) was 7% and the remaining at 3 h, 10 μM [1] was 84.6%.
